Assay results reported in patent US20180171321A1, “PLATFORM FOR A NON-NATURAL AMINO ACID INCORPORATION INTO PROTEINS” (THE UNIVERSITY OF QUEENSLAND, priority 2015, published 2018).
Entries after “also recorded” stand apart in the source; their conditions may differ.

Columns and labels:
[1] = test system: amber codon (UAG) in GFP templates; test: Amber codon suppression in E. coli cell-free translation system (GFP fluorescence); type: biochemical
Excerpt: FIG. 22. Comparative analysis of amber codon suppression efficiencies in E. coli cell-free translation system with different nnAA/o-tRNA/aaRS combinations. A: The structure of nnAAs used here. B-D: Suppression Amber suppression of A_151X template. The suppression efficiency is defined as a ratio compared to the fluorescence of percentage of wild type eGFP fluorescence wild type eGFP without stop codon inside its ORF. B: Incorporation of four nnAAs by three PylRS variants. The final concentrations of PylTcua, PylRS variants and nnAAs were 20 μM, 20 μM and 1 mM, respectively. C: AzF incorporation by four MjY tRNA variants. MjY1, MjY2, MjY3 and MjY4 are corresponding to the tRNAs pAzPhe1, pAzPhe2, pAzPhe3 and tRNAopt CUA in original publication^35,37. The final concentrations of MjYtRNA variants, AzFRS and AzF are 10 μM, 10 μM and 1 mM, respectively. D: Effect of o-tRNA and o-aaRS concentrations on amber codon suppression efficiency of MjY2/AzFRS/AzF and PylT/PylRSAF/PrK. E: The effect of codon contexts on nnAA incorporation efficiency in two orthogonal systems. The concentration of MjY2 and AzFRS were 10 μM for both while PylT and PylRS were used at 20 and 30 μM, respectively. Four templates, named A_1X, A_151X, B_1X and B_151X, were used in the analysis (sequences are shown in SI). A and B denote the template backbones with different codon biases where codon vocabulary in A is optimized for eGFP while in B it is simplified mostly utilizing the unique codon to decode each amino acid type. The numeric indicates the position of amber codon in ORF sequence. The relative activity in individual reactions is given as a percent of fluorescent intensity provided while obtained when using EctRNATyr(cua) as a suppressor.
(§1) The tRNA-depleted lysate is prepared as described by ethanolamine-sepharose affinity chromatography^24. DNA templates with two GFP ORFs: one of optimized codon composition for eGFP (Template A) and the other of simplified codon composition for sGFP (Template B), were used. Mutations to amber or AGG-codon were introduced either by synthesizing the whole gene fragments as gBlocks by IDT to change all the 6 Arg codons to AGG simultaneously or using PCR with the proper primers to introduce mutations with less than 3 nucleotides at the same position. The obtained fragments were cloned into the pLTE or pOPINE-based plasmids following the standard Gibson assembly cloning procedure (NEB). The correct plasmids with desired mutations were purified by Midiprep Kit (Qiagen) to ensure good quality for cell free protein translation. The sequence information of all the open reading frames used here is provided in SI.
The cell-free translation reactions for GFP production were performed following the standard protocol^60 with the optimized Mg^2+ at 10 mM concentration. 0.35 volume of depleted lysate, same as that for the standard S30 lysate, was used in the reaction. […] GFP production was monitored on a fluorescence plate reader (Synergy) at 30° C. for 3-5 h at 485 nm excitation and 528 nm emission wavelengths.
We tested the recombinant forms of PylRS variants for their ability to support in vitro synthesis of eGFP synthesis from the template containing amber-codon at 151 position (A_151X, SI) in the presence of an evolved o-tRNA harboring U25C mutation in its anticodon stem (PylT)^14 and nnAA-substrates BCN, TCO or TCO*. Another nnAA PrK (FIG. 22A) for also used for azide-coupling known to be accommodated and charged to tRNA by wt MbPylRS30 and […], MmPylRS5, was also tested. […] Neither of these large aliphatic alkynes or alkenes could be incorporated by either of three PylRS mutants with efficiency above 5%. […] The latter confirms the promiscuity of engineered PylRS variant to various substrates reported in a comprehensive study^35

[2] = test system: amber codon in A_151X template; test: Amber suppression by flexizyme-precharged nnAA-tRNA, A_151X template; type: biochemical, E. coli; conditions: five nnAAs; precharged tRNA 10, 20 or 30 uM
Excerpt: FIG. 29. The incorporation efficiency of 5 nnAAs precharged by flexizyme with their respective active group. A: The structure of five activated acid substrates for tRNA acylation by Flexizyme, including L-Propargylglycine 4-chlorobenzyl thioester (Pra-CBT), L-Azidolysine 4-chlorobenzyl thioester (Lys(N3)-CBT), L-Azidohomoalanine 4-chlorobenzyl thioester (Aha-CBT), NE-biotinyl-L-lysine 3,5-dinitrobenzyl ester (Lys(biotin)-DBN) and L-Azidophenylalanine-cyanomethyl ester (AzF-CME). The nnAAs are shown in black while their respective active groups in red. B: The amber suppression efficiency of 5 nnAAs precharged tRNA tested by using A_151X template in the cell free translation system. The precharged tRNA was used to prime the translational reactions at 10, 20 or 30 uM of final tRNA concentration. The flexizyme reaction time and the final concentration of precharged nnAA-tRNAs were indicated.
C-terminal Cys were added into sequence of the affinity clamp protein (pdz-fibronectin Fusion Protein, PDB: 3CH8_A). The purified protein with C-terminal Cys was immobilized on Iodoacetyl Gel (UltraLink®) using manufacture's protocol. tRNA charging by flexizyme for amber suppression: The acylation reaction were performed as described before^62. 1 volume of 250 μM o-tRNA was mixed with the same volume of 50 μM Fx ([…]) and 3 volume of water. […]

[3] = test system: AGG codon in GFP ORFs; test: AGG reassignment to AzF in cell-free system depleted of tRNA species decoding AGG; type: biochemical, E. coli; conditions: all four templates
Procedure: FIG. 23. AGG reassignment to AzF in the context of four GFP ORFs. The GFP protein was expressed in cell-free system depleted of tRNA species decoding AGG codon with and without addition of MjY suppression system (MjY2/AzFRS). The final concentrations for MjY2, AzFRS, AzF are were 10 μM, 10 μM and 1 mM, respectively. The anticodon in MjY2 was changed to CCU in order to reassign AGG codon to AzF.
as §1, with “The obtained fragments were cloned into the pLTE or pOPINE-based plasmids following the standard Gibson assembly cloning procedure (NEB). The correct plasmids with desired mutations were purified by Midiprep Kit (Qiagen) to ensure good quality for cell free protein translation.” left out
The cell-free translation reactions for GFP production were performed following the standard protocol^60 with the optimized Mg^2+ at 10 mM concentration. […] GFP production was monitored on a fluorescence plate reader (Synergy) at 30° C. for 3-5 h at 485 nm excitation and 528 nm emission wavelengths. […]

[4] = test system: GCU Ser isoacceptor; test: Kissing loop binding to tRNA isoacceptor; parameters: species or system E. coli; conditions: read-out: affinity
Procedure: Kissing loop (KL) binds GCU Ser isoacceptor with high affinity (5-50 nM) through the formation of quasi-continuous double helix stabilized by the common stacking column between the planes of the nucleotide pairs (FIG. 16A). E. coli S30 lysate can be to a large extent depleted of total tRNA by the chromatography on ethanolamine sepharose. After the depletion lysate retains ˜60% of translational efficiency of its parental one if supplemented by commercially available total tRNA fraction (FIG. 16 B).

[5] = A_151X template, % of wild type eGFP fluorescence, PylTcua 20 μM, PylRS variant 20 μM, nnAA 1 mM

[N-]=[N+]=Nc1ccc(C[C@H](N)C(=O)O)cc1 [AzF, p-azidophenylalanine]
protein containing AzF (LC-MS/MS) ([1]; GFP151AzF sample, TAG codon): more than 80% | amber suppression efficiency among flexizyme-charged nnAAs [2]: best amber-codon incorporation efficiency; also recorded: highest translational activity | GFP protein modified with AzF [3]: more than 80%

Bicyclo [6.1.0] nonyne-Lysine [BCN]
UAG suppression efficiency with BCNRS [1, 5]: 3% | efficiency of UAG suppression by either of three PylRS mutants ([1]; A_151X template, BCNRS, TCORS, PylRSAF): very low

C#CCN[C@@H](CCCCN)C(=O)O [PrK, N-Propargyl-Lysine]
incorporation with TCORS ([1]; A_151X template): essentially failed to incorporate | UAG suppression efficiency with BCNRS [1, 5]: essentially failed to incorporate | UAG suppression efficiency with PylRSAF [1, 5]: 13%

B1: KL: RNA aptamer binding the anticodon loop of tRNA(Ser)GCU; SEQ ID NO:7 (nucleic acid)
chain: GGTAGTGAGGTAGTTAGCAGATACCTCACTACCAACACACACACAACACACACACAACACACAAGCT
modifications: “kissing loop” coding sequence with linker
Kd [4]: 5 to 50 nM

B2: MjY4: MjY tRNA with six mutations described in a later report (nucleic acid)
DNA: CCGGCGGTAGTTCAGCAGGGCAGAACGGCGGACTCTAAATCCGCATGGCAGGGGTTCAAATCCCCTCCGCCGGACCA
modifications: RNA, all phosphodiester, T or U not given here
notes: MjY tRNA with six mutations described in a later report
efficiency of MjY2 relative to the listed tRNA in AzF incorporation ([1]; A_151X, 10 μM tRNA, 10 μM AzFRS, 1 mM AzF): slightly better
